Like-named read-outs stand apart in the source and are kept apart here.
Legend:
Type in all cases: cell-based
[1] = biological target: T1, human muscarinic M1 receptor (Homo sapiens, UniProt P11229); assay: Alphascreen Surefire phospho-ERK1/2 functional assay, M1; conditions: for EC50: phospho-ERK1/2, read-out: pEC50 M1 (converted); for Emax: CHO
T1 sequence (P11229 1-460): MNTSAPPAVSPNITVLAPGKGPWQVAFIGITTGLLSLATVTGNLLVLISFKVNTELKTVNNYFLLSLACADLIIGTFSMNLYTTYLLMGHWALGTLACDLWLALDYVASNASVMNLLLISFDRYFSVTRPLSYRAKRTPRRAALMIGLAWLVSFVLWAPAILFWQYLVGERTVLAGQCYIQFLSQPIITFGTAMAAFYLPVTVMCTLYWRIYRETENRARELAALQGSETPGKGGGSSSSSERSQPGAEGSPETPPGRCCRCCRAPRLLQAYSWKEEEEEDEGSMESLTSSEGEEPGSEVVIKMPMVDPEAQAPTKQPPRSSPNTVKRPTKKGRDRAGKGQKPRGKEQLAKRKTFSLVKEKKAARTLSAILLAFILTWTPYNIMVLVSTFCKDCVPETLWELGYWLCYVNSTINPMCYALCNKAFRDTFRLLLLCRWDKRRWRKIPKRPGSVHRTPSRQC
Description: (§1) Functional assays were performed using the Alphascreen Surefire phospho-ERK1/2 assay (Crouch & Osmond, Comb. Chem. High Throughput Screen, 2008). ERK1/2 phosphorylation is a downstream consequence of both Gq/11 and Gi/o protein coupled receptor activation, making it highly suitable for the assessment of M1, M3 (Gq/11 coupled) and M2, M4 receptors (Gi/o coupled), rather than using different assay formats for different receptor subtypes. CHO cells stably expressing the human muscarinic M1, M2, M3 or M4 receptor were plated (25K/well) onto 96-well tissue culture plates in MEM-alpha+10% dialysed FBS. Once adhered, cells were serum-starved overnight. Agonist stimulation was performed by the addition of 5 μL agonist to the cells for 5 min (37° C.). Media was removed and 50 μL of lysis buffer added. After 15 min, a 4 μL sample was transferred to 384-well plate and 7 μL of detection mixture added. Plates were incubated for 2 h with gentle agitation in the dark and then read on a PHERAstar plate reader.
(§2) pEC50 and Emax figures were calculated from the resulting data for each receptor subtype.

[2] = biological target: T2, human muscarinic M3 receptor (Homo sapiens, UniProt P20309); assay: Alphascreen Surefire phospho-ERK1/2 functional assay, M3; conditions: for EC50: CHO cells stably expressing human M3, phospho-ERK1/2, read-out: pEC50 M3 (converted); for Emax: CHO, read-out: M3 % Emax cf. ACh
T2 construct: expressed in transfected cells
Description: as §1, §2

[3] = biological target: T3, human muscarinic M4 receptor (Homo sapiens, UniProt P08173); assay: Alphascreen Surefire phospho-ERK1/2 functional assay, M4; conditions: for EC50: phospho-ERK1/2, read-out: pEC50 M4 (converted); for Emax: CHO
T3 construct: expressed in transfected cells
T3 sequence (P08173 1-479): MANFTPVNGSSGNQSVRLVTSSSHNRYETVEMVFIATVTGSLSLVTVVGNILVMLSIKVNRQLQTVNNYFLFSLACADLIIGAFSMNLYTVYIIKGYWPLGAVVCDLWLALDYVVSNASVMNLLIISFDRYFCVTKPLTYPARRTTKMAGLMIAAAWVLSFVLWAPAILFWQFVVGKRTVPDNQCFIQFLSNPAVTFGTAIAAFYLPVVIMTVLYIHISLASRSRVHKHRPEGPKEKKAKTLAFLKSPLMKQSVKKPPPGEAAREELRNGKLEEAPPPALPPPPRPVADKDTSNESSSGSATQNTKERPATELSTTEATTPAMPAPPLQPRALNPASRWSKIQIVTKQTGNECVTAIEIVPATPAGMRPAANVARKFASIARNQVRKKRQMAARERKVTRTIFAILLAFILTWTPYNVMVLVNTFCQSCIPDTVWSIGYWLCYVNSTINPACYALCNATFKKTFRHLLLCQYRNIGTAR
Description: as §1, §2

[4] = biological target: T4, human muscarinic M2 receptor (Homo sapiens, UniProt P08172); assay: Alphascreen Surefire phospho-ERK1/2 functional assay, M2; conditions: for EC50: CHO cells stably expressing human M2, phospho-ERK1/2, read-out: pEC50 M2 (converted); for Emax: CHO, read-out: M2 % Emax cf. ACh
T4 sequence (P08172 1-466): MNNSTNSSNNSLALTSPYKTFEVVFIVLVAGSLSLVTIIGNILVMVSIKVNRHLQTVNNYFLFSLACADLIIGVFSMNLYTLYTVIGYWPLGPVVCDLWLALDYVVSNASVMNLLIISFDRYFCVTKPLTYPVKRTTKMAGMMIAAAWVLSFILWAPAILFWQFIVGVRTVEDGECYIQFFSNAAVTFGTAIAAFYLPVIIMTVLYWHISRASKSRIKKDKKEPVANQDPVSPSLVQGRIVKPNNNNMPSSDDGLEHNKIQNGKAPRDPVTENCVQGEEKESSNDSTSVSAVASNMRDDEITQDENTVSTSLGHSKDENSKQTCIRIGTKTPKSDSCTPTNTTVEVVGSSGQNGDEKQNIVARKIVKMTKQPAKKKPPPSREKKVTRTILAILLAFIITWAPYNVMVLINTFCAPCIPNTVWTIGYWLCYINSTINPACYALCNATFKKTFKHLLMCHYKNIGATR
Description: as §1, §2

[5] = CHO cells stably expressing human M1
[6] = read-out: M1 % Emax cf. ACh, CHO cells stably expressing human M1, Emax relative to ACh
[7] = CHO cells stably expressing human M4
[8] = read-out: M4 % Emax cf. ACh, CHO cells stably expressing human M4, Emax relative to ACh

T2 sequence (P20309 whole entry): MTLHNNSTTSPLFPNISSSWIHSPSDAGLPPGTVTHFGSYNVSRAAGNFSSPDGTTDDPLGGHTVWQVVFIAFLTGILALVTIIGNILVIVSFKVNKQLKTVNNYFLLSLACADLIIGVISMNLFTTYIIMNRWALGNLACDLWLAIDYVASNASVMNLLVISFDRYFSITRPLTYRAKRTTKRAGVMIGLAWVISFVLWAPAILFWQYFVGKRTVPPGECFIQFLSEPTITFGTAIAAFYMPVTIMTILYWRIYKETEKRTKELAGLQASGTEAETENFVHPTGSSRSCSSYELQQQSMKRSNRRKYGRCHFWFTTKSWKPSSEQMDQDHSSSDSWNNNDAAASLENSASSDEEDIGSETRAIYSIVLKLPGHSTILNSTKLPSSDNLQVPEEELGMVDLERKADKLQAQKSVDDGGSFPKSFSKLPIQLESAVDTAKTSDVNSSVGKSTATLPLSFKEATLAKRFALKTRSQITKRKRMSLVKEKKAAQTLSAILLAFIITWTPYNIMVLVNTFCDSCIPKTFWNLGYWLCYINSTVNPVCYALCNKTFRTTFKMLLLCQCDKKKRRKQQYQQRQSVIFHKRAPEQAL

EC50 [1, 5] | Emax [1, 6] | EC50 [2] | Emax [2] | EC50 [3, 7] | Emax [3, 8] | EC50 [4] | Emax [4] | M1 % Emax cf. ACh ([1]; CHO cells stably expressing human M1, Emax relative to ACh) | M4 % Emax cf. ACh ([3]; CHO cells stably expressing human M4, Emax relative to ACh) | Compound | Emax ([1]; read-out: M1 % Emax cf. ACh) | Emax ([3]; read-out: M4 % Emax cf. ACh)
209 nM | 102% | > 20000 nM | 1% | 741 nM | 52% | > 20000 nM | 23% | – | – | CCOC(=O)N[C@@H]1CCN(C2CCC(C#N)(c3ccccc3)CC2)C1 (single isomer, unassigned) [1-2 Isomer 2] | – | –
35.5 nM | 98% | > 20000 nM | 8% | > 20000 nM | 7% | > 20000 nM | 3% | – | – | CCOC(=O)N[C@H]1CCN(C2CCC(C#N)(c3ccc(F)cc3)CC2)C1 (single isomer, unassigned) [1-4 Isomer 2] | – | –
389 nM | 101% | > 20000 nM | 34% | 1700 nM | 48% | > 20000 nM | 35% | – | – | CCOC(=O)N1CCCN(C2CCC(C#N)(c3ccccc3C)CC2)CC1 (mixture of isomers) [3-7 mixture of isomers] | – | –
89.1 nM | 107% | > 20000 nM | 34% | > 20000 nM | 10% | > 20000 nM | 3% | – | – | CCOC(=O)N1CCCN(C2CCC3(CC2)C(=O)Nc2ccc(OC)cc23)CC1 (single isomer, unassigned) [4-12 isomer 1] | – | –
30.9 nM | 119% | > 20000 nM | 1% | > 20000 nM | 13% | > 20000 nM | 0% | – | – | CCOC(=O)N[C@H]1CCN(C2CCC(C#N)(c3cccc(F)c3)CC2)C1 (single isomer, unassigned) [1-3 Isomer 2] | – | –
30.2 nM | 101% | > 20000 nM | 6% | 1740 nM | 39% | > 20000 nM | 5% | – | – | CCOC(=O)N1CCCN(C2CCC(C#N)(c3ccc(OC)cn3)CC2)CC1 (single isomer, unassigned) [3-19 Isomer 2] | – | –
70.8 nM | 55% | > 20000 nM | 21% | 537 nM | 42% | > 20000 nM | 12% | – | – | COc1ccc2c(c1)C1(CCC(N3CCC[C@@H](c4nc(C)no4)C3)CC1)C(=O)N2 (single isomer, unassigned) [22-2 Isomer 1] | – | –
51.3 nM | 117% | > 20000 nM | 18% | > 20000 nM | 18% | > 20000 nM | 3% | – | – | CCOC(=O)N[C@H]1CCN(C2CCC(C#N)(c3ccccc3)CC2)C1 (single isomer, unassigned) [1-1 Isomer 2] | – | –
295 nM | 86% | > 20000 nM | 40% | 832 nM | 46% | > 20000 nM | 12% | – | – | CCOC(=O)N1CCCN(C2CCC(C#N)(c3ccccc3Cl)CC2)CC1 (mixture of isomers) [3-4 mixture of isomers] | – | –
58.9 nM | 129% | > 20000 nM | 12% | 53.7 nM | 49% | > 20000 nM | 0% | – | – | CCOC(=O)NCC1CCN(C2CCC(C#N)(c3ccccc3)CC2)CC1 (single isomer, unassigned) [6-2-Isomer 2] | – | –
25.1 nM | 96% | > 20000 nM | 46% | 74.1 nM | 76% | > 20000 nM | 7% | – | – | CCOC(=O)N1CCCN(C2CCC(C#N)(c3cccc(F)c3)CC2)CC1 (mixture of isomers) [3-2 mixture of isomers] | – | –
155 nM | 116% | > 20000 nM | 3% | 1070 nM | 48% | > 20000 nM | 5% | – | – | CCOC(=O)N1CCCN(C2CCC(C#N)(c3ccncc3)CC2)CC1 (mixture of isomers) [3-12 mixture of isomers] | – | –
28.2 nM | 106% | > 20000 nM | 9% | > 20000 nM | 24% | > 20000 nM | 6% | – | – | CCOC(=O)N[C@H]1CCN(C2CCC(C#N)(c3cccc(Cl)c3)CC2)C1 (single isomer, unassigned) [1-10 Isomer 2] | – | –
724 nM | 90% | > 20000 nM | 2% | > 20000 nM | 53% | > 20000 nM | 3% | – | – | CCOC(=O)N1CCCN(C2CCC(C#N)(c3ccc(C(F)(F)F)cn3)CC2)CC1 (mixture of isomers) [3-21 mixture of isomers] | – | –
9.55 nM | 105% | > 20000 nM | 38% | 100 nM | 62% | > 20000 nM | 11% | – | – | CCOC(=O)N1CCCN(C2CCC(C#N)(c3ccc(Cl)cc3)CC2)CC1 (mixture of isomers) [3-6 mixture of isomers] | – | –
7.94 nM | 64% | > 20000 nM | 4% | > 20000 nM | 39% | > 20000 nM | 27% | – | – | CCOC(=O)N[C@H]1CCN(C2CCC3(CC2)C(=O)Nc2ccc(OC)cc23)C1 (single isomer, unassigned) [2-10 isomer 1] | – | –
75.9 nM | – | > 20000 nM | 3% | 170 nM | – | > 20000 nM | 37% | 122% | 32% | CCOC(=O)NCC1CCN(C2CCC3(CC2)C(=O)Nc2ccccc23)CC1 (single isomer, unassigned) [7-2 isomer 1] | – | –

Compound | EC50 [1, 5] | Emax [1, 6] | EC50 [2] | Emax [2] | EC50 [3, 7] | Emax [3, 8] | EC50 [4] | Emax [4] | M1 % Emax cf. ACh ([1]; CHO cells stably expressing human M1, Emax relative to ACh) | M4 % Emax cf. ACh ([3]; CHO cells stably expressing human M4, Emax relative to ACh) | Emax ([1]; read-out: M1 % Emax cf. ACh) | Emax ([3]; read-out: M4 % Emax cf. ACh)
CCOC(=O)N(C)[C@@H]1CCN(C2CCC(C#N)(c3ccccc3)CC2)C1 (single isomer, unassigned) [1-21 Isomer 2] | 110 nM | – | > 20000 nM | 5% | > 20000 nM | – | > 20000 nM | 1% | – | – | 64% | 15%
CCOC(=O)N1CCC2(CCN(C3CCC(C#N)(c4ccccc4)CC3)CC2)C1 (single isomer, unassigned) [13-1 Isomer 2] | 0.447 nM | – | > 20000 nM | 7% | 0.145 nM | – | > 20000 nM | 21% | – | – | 121% | 121%
